Results reported in patent publication US12441691B2 (Cytokinetics, Inc., priority 2020, dated 2025).

tested on: rabbit skeletal myofibrils (fast skeletal myofibrils); assay: Activation of fast skeletal myofibrils (PUMA assay, AC1.4); type: biochemical; conditions: calcium at pCa25, AC1.4 = concentration at which the compound increased the enzymatic activity
How it was run: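 Detergent-washed rabbit psoas myofibrils (~90% fast fibers), calcium set to give 25% of maximal rate (pCa25). ATPase followed by pyruvate kinase/lactate dehydrogenase-coupled NADH oxidation, absorbance at 340 nm. PM12 buffer: 12 mM PIPES, 2 mM MgCl2, 1 mM DTT, pH 6.8.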

SMILES | AC1.4 [µM]
CC[C@H](C)[C@H]1C(=O)Nc2ccccc2CN1C(=O)COc1ccccc1C(N)=O [Compound 201, 2-(2-((S)-3-((S)-sec-butyl)-2-oxo-1,2,3,5-tetrahydro-4H-benzo[e][1,4]diazepin-4-yl)-2-oxoethoxy)benzamide] | 0.05
CC[C@H](C)[C@H]1C(=O)Nc2ccccc2CN1C(=O)Nc1ccc(NC(C)=O)nc1 [Compound 202, (S)-N-(6-acetamidopyridin-3-yl)-3-((S)-sec-butyl)-2-oxo-1,2,3,5-tetrahydro-4H-benzo[e][1,4]diazepine-4-carboxamide] | 0.17
CC[C@H](C)[C@H]1C(=O)Nc2ccccc2CN1C(=O)NCCO [Compound 203, (S)-3-((S)-sec-butyl)-N-(2-hydroxyethyl)-2-oxo-1,2,3,5-tetrahydro-4H-benzo[e][1,4]diazepine-4-carboxamide] | 1.75
CC[C@H](C)[C@H]1C(=O)Nc2ccccc2CN1C(=O)NCC(N)=O [Compound 204, (S)-N-(2-amino-2-oxoethyl)-3-((S)-sec-butyl)-2-oxo-1,2,3,5-tetrahydro-4H-benzo[e][1,4]diazepine-4-carboxamide] | 3.66
CC[C@H](C)[C@H]1C(=O)Nc2ccccc2CN1C(=O)NCCC(N)=O [Compound 205, (S)-N-(3-amino-3-oxopropyl)-3-((S)-sec-butyl)-2-oxo-1,2,3,5-tetrahydro-4H-benzo[e][1,4]diazepine-4-carboxamide] | 1.58
CC[C@H](C)[C@H]1C(=O)Nc2ccccc2CN1C(=O)NCC(=O)NC [Compound 206, (S)-3-((S)-sec-butyl)-N-(2-(methylamino)-2-oxoethyl)-2-oxo-1,2,3,5-tetrahydro-4H-benzo[e][1,4]diazepine-4-carboxamide] | 4.98
CC[C@H](C)[C@H]1C(=O)Nc2ccccc2CN1C(=O)NC[C@H](O)CO [Compound 207, (S)-3-((S)-sec-butyl)-N-((S)-2,3-dihydroxypropyl)-2-oxo-1,2,3,5-tetrahydro-4H-benzo[e][1,4]diazepine-4-carboxamide] | 3.62
CC[C@H](C)[C@H]1C(=O)Nc2ccccc2CN1C(=O)NC[C@@H](O)CO [Compound 208, (S)-3-((S)-sec-butyl)-N-((R)-2,3-dihydroxypropyl)-2-oxo-1,2,3,5-tetrahydro-4H-benzo[e][1,4]diazepine-4-carboxamide] | 2.70
CC[C@H](C)[C@H]1C(=O)Nc2ccccc2CN1C(=O)N[C@@H]1CCNC1=O [Compound 209, (S)-3-((S)-sec-butyl)-2-oxo-N-((R)-2-oxopyrrolidin-3-yl)-1,2,3,5-tetrahydro-4H-benzo[e][1,4]diazepine-4-carboxamide] | 4.17
CC[C@H](C)[C@H]1C(=O)Nc2ccccc2CN1C(=O)N[C@H]1CCNC1=O [Compound 210, (S)-3-((S)-sec-butyl)-2-oxo-N-((S)-2-oxopyrrolidin-3-yl)-1,2,3,5-tetrahydro-4H-benzo[e][1,4]diazepine-4-carboxamide] | 4.25
CC[C@H](C)[C@H]1C(=O)Nc2ccccc2CN1C(=O)NCCNC(C)=O [Compound 211, (S)-N-(2-acetamidoethyl)-3-((S)-sec-butyl)-2-oxo-1,2,3,5-tetrahydro-4H-benzo[e][1,4]diazepine-4-carboxamide] | 2.92
CC[C@H](C)[C@H]1C(=O)Nc2ccccc2CN1C(=O)NCCNC(N)=O [Compound 212, (S)-3-((S)-sec-butyl)-2-oxo-N-(2-ureidoethyl)-1,2,3,5-tetrahydro-4H-benzo[e][1,4]diazepine-4-carboxamide] | 1.27
CC[C@H](C)[C@H]1C(=O)Nc2ccccc2CN1C(=O)NCC[S+](C)[O-] (stereo partly drawn) [Compound 213, (3S)-3-((S)-sec-butyl)-N-(2-(methylsulfinyl)ethyl)-2-oxo-1,2,3,5-tetrahydro-4H-benzo[e][1,4]diazepine-4-carboxamide] | 4.04
CC[C@H](C)[C@H]1C(=O)Nc2ccccc2CN1C(=O)NCc1cncn1C [Compound 214, (S)-3-((S)-sec-butyl)-N-((1-methyl-1H-imidazol-5-yl)methyl)-2-oxo-1,2,3,5-tetrahydro-4H-benzo[e][1,4]diazepine-4-carboxamide] | 1.72
CC[C@H](C)[C@H]1C(=O)Nc2ccccc2CN1C(=O)NC[C@H]1CCC(=O)N1 [Compound 215, (S)-3-((S)-sec-butyl)-2-oxo-N-(((R)-5-oxopyrrolidin-2-yl)methyl)-1,2,3,5-tetrahydro-4H-benzo[e][1,4]diazepine-4-carboxamide] | 4.65
CC[C@H](C)[C@H]1C(=O)Nc2ccccc2CN1C(=O)N[C@H]1CCCNC1=O [Compound 216, (S)-3-((S)-sec-butyl)-2-oxo-N-((S)-2-oxopiperidin-3-yl)-1,2,3,5-tetrahydro-4H-benzo[e][1,4]diazepine-4-carboxamide] | 2.64
CC[C@H](C)[C@H]1C(=O)Nc2ccccc2CN1C(=O)N[C@@H]1CCCNC1=O [Compound 217, (S)-3-((S)-sec-butyl)-2-oxo-N-((R)-2-oxopiperidin-3-yl)-1,2,3,5-tetrahydro-4H-benzo[e][1,4]diazepine-4-carboxamide] | 2.45

SMILES | AC1.4 [µM]
CC[C@H](C)[C@H]1C(=O)Nc2ccccc2CN1C(=O)N[C@@H]1CCC(=O)NC1 [Compound 218, (S)-3-((S)-sec-butyl)-2-oxo-N-((R)-6-oxopiperidin-3-yl)-1,2,3,5-tetrahydro-4H-benzo[e][1,4]diazepine-4-carboxamide] | 0.88
CC[C@H](C)[C@H]1C(=O)Nc2ccccc2CN1C(=O)N[C@H]1CCC(=O)NC1 [Compound 219, (S)-3-((S)-sec-butyl)-2-oxo-N-((S)-6-oxopiperidin-3-yl)-1,2,3,5-tetrahydro-4H-benzo[e][1,4]diazepine-4-carboxamide] | 2.10
CC[C@H](C)[C@H]1C(=O)Nc2ccccc2CN1C(=O)NCCS(C)(=O)=O [Compound 220, (S)-3-((S)-sec-butyl)-N-(2-(methylsulfonyl)ethyl)-2-oxo-1,2,3,5-tetrahydro-4H-benzo[e][1,4]diazepine-4-carboxamide] | 3.01
CC[C@H](C)[C@H]1C(=O)Nc2ccccc2CN1C(=O)NCCS(N)(=O)=O [Compound 221, (S)-3-((S)-sec-butyl)-2-oxo-N-(2-sulfamoylethyl)-1,2,3,5-tetrahydro-4H-benzo[e][1,4]diazepine-4-carboxamide] | 1.80
CC[C@H](C)[C@H]1C(=O)Nc2ccccc2CN1C(=O)NCCN1CC[C@@H](O)C1 [Compound 222, (S)-3-((S)-sec-butyl)-N-(2-((R)-3-hydroxypyrrolidin-1-yl)ethyl)-2-oxo-1,2,3,5-tetrahydro-4H-benzo[e][1,4]diazepine-4-carboxamide] | 2.02
CC[C@H](C)[C@H]1C(=O)Nc2ccccc2CN1C(=O)NCCN1CC[C@H](O)C1 [Compound 223, (S)-3-((S)-sec-butyl)-N-(2-((S)-3-hydroxypyrrolidin-1-yl)ethyl)-2-oxo-1,2,3,5-tetrahydro-4H-benzo[e][1,4]diazepine-4-carboxamide] | 1.43
CC[C@H](C)[C@H]1C(=O)Nc2ccccc2CN1C(=O)NC1CCS(=O)(=O)C1 (stereo partly drawn) [Compound 224, (3S)-3-((S)-sec-butyl)-N-(1,1-dioxoidotetrahydrothiophen-3-yl)-2-oxo-1,2,3,5-tetrahydro-4H-benzo[e][1,4]diazepine-4-carboxamide] | 2.85
CC[C@H](C)[C@H]1C(=O)Nc2ccccc2CN1C(=O)N(C)CCO [Compound 225, (S)-3-((S)-sec-butyl)-N-(2-hydroxyethyl)-N-methyl-2-oxo-1,2,3,5-tetrahydro-4H-benzo[e][1,4]diazepine-4-carboxamide] | 1.67
CC[C@H](C)[C@H]1C(=O)Nc2ccccc2CN1C(=O)N1CCNCC1 [Compound 226, (S)-3-((S)-sec-butyl)-4-(piperazine-1-carbonyl)-1,3,4,5-tetrahydro-2H-benzo[e][1,4]diazepin-2-one] | 3.91
CC[C@H](C)[C@H]1C(=O)Nc2ccccc2CN1C(=O)N1CCC(O)C1 (stereo partly drawn) [Compound 227, (3S)-3-((S)-sec-butyl)-4-(3-hydroxypyrrolidine-1-carbonyl)-1,3,4,5-tetrahydro-2H-benzo[e][1,4]diazepin-2-one] | 2.29
CC[C@H](C)[C@H]1C(=O)Nc2ccccc2CN1C(=O)N(C)CC(N)=O [Compound 228, (S)-N-(2-amino-2-oxoethyl)-3-((S)-sec-butyl)-N-methyl-2-oxo-1,2,3,5-tetrahydro-4H-benzo[e][1,4]diazepine-4-carboxamide] | 3.76
CC[C@H](C)[C@H]1C(=O)Nc2ccccc2CN1C(=O)N1CCNC(=O)C1 [Compound 229, (S)-3-((S)-sec-butyl)-4-(3-oxopiperazine-1-carbonyl)-1,3,4,5-tetrahydro-2H-benzo[e][1,4]diazepin-2-one] | 3.74
CC[C@H](C)[C@H]1C(=O)Nc2ccccc2CN1C(=O)N1CCN(C)CC1 [Compound 230, (S)-3-((S)-sec-butyl)-4-(4-methylpiperazine-1-carbonyl)-1,3,4,5-tetrahydro-2H-benzo[e][1,4]diazepin-2-one] | 1.31
CC[C@H](C)[C@H]1C(=O)Nc2ccccc2CN1C(=O)N1CCN[C@@H](C)C1 [Compound 231, (S)-3-((S)-sec-butyl)-4-((S)-3-methylpiperazine-1-carbonyl)-1,3,4,5-tetrahydro-2H-benzo[e][1,4]diazepin-2-one] | 4.86
CC[C@H](C)[C@H]1C(=O)Nc2ccccc2CN1C(=O)N[C@@H](C)C(=O)NC [Compound 232, (S)-3-((S)-sec-butyl)-N-((S)-1-(methylamino)-1-oxopropan-2-yl)-2-oxo-1,2,3,5-tetrahydro-4H-benzo[e][1,4]diazepine-4-carboxamide] | 3.47
CC[C@H](C)[C@H]1C(=O)Nc2ccccc2CN1C(=O)N(C)c1cnccn1 [Compound 233, (S)-3-((S)-sec-butyl)-N-methyl-2-oxo-N-(pyrazin-2-yl)-1,2,3,5-tetrahydro-4H-benzo[e][1,4]diazepine-4-carboxamide] | 2.16
